What was measured:
[1] = Drug metabolism in human NCI-H292 cells assessed as compound hydrolysis by measuring increase in 4-amino SAHA formation after 30 mins by HPLC-ESI-MS analysis; assay type: ADME, cell-based; conditions: nci-h292, 0.5 h
[2] = Solubility of the compound in aqueous solution at 20 uM; assay type: physicochemical; conditions: buffer
[3] = Solubility of the compound in aqueous solution at 500 uM in presence of LDL; assay type: physicochemical; conditions: buffer
[4] = tested on: NCI-H292; test: cells; assay type: functional, cell-based; conditions: Homo sapiens, NCI-H292, 72 h
Description: Growth inhibition of human NCI-H292 cells after 72 hrs by MTT assay

[5] = tested on: NCI-H292; test: cells; assay type: functional, cell-based; conditions: Homo sapiens, NCI-H292, 72 h; remark: listed apart in the source
Description: Growth inhibition of human NCI-H292 cells after 72 hrs in presence of LDL by MTT assay

[6] = tested on: NCI-H292; test: cells; assay type: functional, cell-based; conditions: Homo sapiens, NCI-H292, 72 h; remark: listed apart in the source
Description: Growth inhibition of human NCI-H292 cells in FBS containing medium after 72 hrs using compound after sonication in presence of LDL by MTT assay

[7] = tested on: NCI-H292; test: cells; assay type: functional, cell-based; conditions: Homo sapiens, NCI-H292, 72 h; remark: listed apart in the source
Description: Growth inhibition of human NCI-H292 cells in LDL depleted FBS containing medium after 72 hrs using compound after sonication in presence of LDL by MTT assay

Row | Drug metabolism [1] | solubility [2] | solubility [3] | IC50 [4] [µM] | IC50 [5] [µM] | IC50 [6] [µM] | IC50 [7] [µM] | Structure (SMILES)
1 | Metabolite_Detected | Insoluble | Soluble | > 500 | > 500 | > 500 | 91.2 | CC(C)CCC[C@@H](C)[C@H]1CC[C@H]2[C@@H]3CC=C4C[C@@H](OC(=O)Nc5ccc(NC(=O)CCCCCCC(=O)NO)cc5)CC[C@]4(C)[C@H]3CC[C@]12C
2 | – | – | – | 2.77 | 14.9 | 14.7 | 7.8 | Nc1ccc(NC(=O)CCCCCCC(=O)NO)cc1

From ChEMBL document CHEMBL4002620, “Synthesis of Vorinostat and cholesterol conjugate to enhance the cancer cell uptake selectivity” (Bioorg Med Chem Lett, 2017)
